Measured values as given in patent publication US11247993B2, “Pyridone derivative, composition and use as antiviral drug thereof” (priority 2018, dated 2022).

Legend:
[1] = tested on: influenza virus A/PR/8/34 (H1N1); test: organism not typed; type: cell-based; conditions: MDCK cells, A/PR/8/34 (H1N1), 5 days, CCK8; read-out: EC50
MDCK cells = test: in vitro; type: cell-based
Experimental: Method for cytotoxicity study: The cytotoxicity assay and antiviral activity assay of the compounds were performed in parallel, except for the absence of virus, other experimental conditions were consistent with the antiviral activity assay. After 5 days of culture, the cell viability was measured using the cell viability detection kit CCK8. Raw data were used for calculating compound cytotoxicity (CC50) (see Table 1 for results).

Work on O=C1c2c(O)c(=O)ccn2N([C@@H]2c3ccccc3SCc3c2ccc(F)c3F)[C@@H]2COCCN12 [Baloxavir acid, reference compound] yielded an EC50 [1] of 1.4 nM and a CC50 (MDCK cells) greater than 1000 nM.
